≈ marks a conversion by molar mass, not a printed value. Read-outs that look alike come from different tables or passages of the source.

Assay in all cases: In vitro antibacterial activity, microtitration dilution method (MIC)
What all share (type): cell-based

In assay [1] the test system is Enterobacter cloacae MA 2646. An excerpt:
(§1) The compounds of the invention display antibacterial activity when tested by the microtitration dilution method as described in Heifetz, et al, Antimicr. Agents & Chemoth., 6, 124 (1974), which is incorporated herein by reference. By use of this method, the followed minimum inhibitory concentration values (MICs in μg/mL) were obtained for representative compounds of the invention.

The test system of assay [2] is Escherichia coli Vogel. The note with it: Escherichia coli Vogel, microtitration dilution; read-out: Minimal Inhibitory Concentration MIC.
Text: as §1

For assay [3], the system named is Providencia rettgeri M 1771. As to conditions: M1771; Providencia rettgeri M 1771, microtitration dilution; read-out: Minimal Inhibitory Concentration MIC.
Text: as §1

In assay [4] the test system is Staphylococcus aureus H 228. As to conditions: H228; Staphylococcus aureus H 228, microtitration dilution; read-out: Minimal Inhibitory Concentration MIC.
Text: as §1

Assay [5] deals with Streptococcus pyogenes C-203. The note with it: C203; Streptococcus pyogenes C-203, microtitration dilution; read-out: Minimal Inhibitory Concentration MIC.
Text: as §1

Assay [6] relates to Klebsiella pneumoniae MGH-2. The text has this: (§2) Agents & Chemoth., 6, 124 (1974), which is incorporated herein by reference.
The subject of assay [7] is Pseudomonas aeruginosa UI-18. As to conditions: UI18; Pseudomonas aeruginosa UI-18, microtitration dilution; read-out: Minimal Inhibitory Concentration MIC.
Text: as §2

Assay [8] has as its system Staphylococcus aureus UC-76. The note with it: UC76; Staphylococcus aureus UC-76, microtitration dilution; read-out: Minimal Inhibitory Concentration MIC.
Text: as §2

Assay [9] concerns Streptococcus faecalis MGH-2. The note with it: Enterococcus faecalis.
Text: as §2

Assay [10] relates to Streptococcus pneumoniae SV-1. As to conditions: SV1; Streptococcus pneumoniae SV-1, microtitration dilution; read-out: Minimal Inhibitory Concentration MIC.
Text: as §2

For assay [11], the system named is Proteus rettgeri M 1771. As to conditions: Providencia rettgeri, M1771; Proteus rettgeri M 1771, microtitration dilution; read-out: Minimal Inhibitory Concentration MIC.
Text: as §2

The mark [12] stands for this setting: MA2646, Enterobacter cloacae MA 2646, microtitration dilution, read-out: Minimal Inhibitory Concentration MIC.
[13] abbreviates: MGH2, Klebsiella pneumoniae MGH-2, microtitration dilution, read-out: Minimal Inhibitory Concentration MIC.
The mark [14] stands for this setting: MGH2, Streptococcus faecalis MGH-2, microtitration dilution, read-out: Minimal Inhibitory Concentration MIC.

On to `Cc1c(F)c(N2CCNCC2)c(F)c2c1c(=O)c(C(=O)O)cn2C1CC1` [Ex. 1, 1-Cyclopropyl-6,8-difluoro-1,4-dihydro-5-methyl-4-oxo-7-(1-piperazinyl)-3-quinolinecarboxylic acid], for which the MIC was 0.025 µg/mL (≈ 0.0688 µM) in [1] (setting [12]); 0.025 µg/mL (≈ 0.0688 µM) in assay [2]; 0.05 µg/mL (≈ 0.138 µM) in assay [3]; 0.025 µg/mL (≈ 0.0688 µM) in assay [4]; 0.05 µg/mL (≈ 0.138 µM) in [5]; 0.025 µg/mL (≈ 0.0688 µM) in assay [6] (setting [13]). Moreover, the MIC in assay [7] is 0.2 µg/mL (≈ 0.55 µM); in assay [8], 0.025 µg/mL (≈ 0.0688 µM); in assay [9] (setting [14]) it was 0.05 µg/mL (≈ 0.138 µM); in [10], 0.025 µg/mL (≈ 0.0688 µM).
Take `Cc1c(F)c(N2CCC(N)C2)c(F)c2c1c(=O)c(C(=O)O)cn2C1CC1` (stereo not drawn) [Ex. 2, 7-(3-Amino-1-pyrrolidinyl)-1-cyclopropyl-6,8-difluoro-1,4-dihydro-5-methyl-4-oxo-3-quinolinecarboxylic acid]: the MIC amounted to 0.006 µg/mL (≈ 0.0165 µM) in assay [1] (setting [12]); 0.006 µg/mL (≈ 0.0165 µM) in assay [2]; 0.025 µg/mL (≈ 0.0688 µM) in assay [3]; 0.013 µg/mL (≈ 0.0358 µM) in [4]; 0.013 µg/mL (≈ 0.0358 µM) in assay [5]; 0.013 µg/mL (≈ 0.0358 µM) in assay [6] (setting [13]). For the same compound, the MIC in [7] was 0.4 µg/mL (≈ 1.1 µM); in assay [8], 0.003 µg/mL (≈ 0.00826 µM); in [9] (setting [14]), 0.025 µg/mL (≈ 0.0688 µM); in assay [10], 0.003 µg/mL (≈ 0.00826 µM).
As to `CCNCC1CCN(c2c(F)c(C)c3c(=O)c(C(=O)O)cn(C4CC4)c3c2F)C1` (stereo not drawn) [Ex. 3, 1-Cyclopropyl-7-[3-[(ethylamino)methyl]-1-pyrrolidinyl]-6,8-difluoro-1,4-dihydro-5-methyl-4-oxo-3-quinolinecarboxylic acid], the MIC in [1] (setting [12]) was 0.1 µg/mL (≈ 0.247 µM); in assay [2], 0.05 µg/mL (≈ 0.123 µM); in assay [3], 0.2 µg/mL (≈ 0.493 µM); in assay [4], 0.013 µg/mL (≈ 0.0321 µM); in [5] it was 0.006 µg/mL (≈ 0.0148 µM); in [6] (setting [13]), 0.1 µg/mL (≈ 0.247 µM). The MIC in assay [7] was 0.8 µg/mL (≈ 1.97 µM); in [8], 0.003 µg/mL (≈ 0.0074 µM); in assay [9] (setting [14]), 0.025 µg/mL (≈ 0.0617 µM); in assay [10], 0.003 µg/mL (≈ 0.0074 µM).
Turning to `Cc1c(F)c(N2CCC(C)(CN)C2)c(F)c2c1c(=O)c(C(=O)O)cn2C1CC1` (stereo not drawn) [Ex. 4, 7-[3-(Aminomethyl)-3-methyl-1-pyrrolidinyl]-1-cyclopropyl-6,8-difluoro-1,4-dihydro-5-methyl-4-oxo-3-quinolinecarboxylic acid], the MIC was determined as 0.05 µg/mL (≈ 0.128 µM) in assay [1] (Enterobacter cloacae, MA2646, read-out: Minimal Inhibitory Concentration MIC); 0.05 µg/mL (≈ 0.128 µM) in [2]; 0.2 µg/mL (≈ 0.511 µM) in [3]; 0.006 µg/mL (≈ 0.0153 µM) in assay [4]; 0.003 µg/mL (≈ 0.00766 µM) in assay [5]; 0.1 µg/mL (≈ 0.255 µM) in assay [6] (Klebsiella pneumoniae, MGH2, read-out: Minimal Inhibitory Concentration MIC). The MIC was determined as 0.8 µg/mL (≈ 2.04 µM) in assay [7], 0.003 µg/mL (≈ 0.00766 µM) in assay [8], 0.025 µg/mL (≈ 0.0639 µM) in [9] (setting [14]) and 0.003 µg/mL (≈ 0.00766 µM) in assay [10].
Consider `Cc1c(F)c(N2CCNC(C)C2)cc2c1c(=O)c(C(=O)O)cn2-c1ccc(F)cc1F` (stereo not drawn) [Ex. 17a, 6-Fluoro-1-(2,4-difluorophenyl)-1,4-dihydro-5-methyl-7-(3-methyl-1-piperazinyl)-4-oxo-3-quinolinecarboxylic acid], for which the MIC in assay [1] (setting [12]) is 0.2 µg/mL (≈ 0.464 µM); in assay [2], 0.1 µg/mL (≈ 0.232 µM); in assay [4], 0.1 µg/mL (≈ 0.232 µM); in assay [5] it was 0.1 µg/mL (≈ 0.232 µM); in assay [6] (setting [13]), 0.4 µg/mL (≈ 0.927 µM); in assay [11], 0.8 µg/mL (≈ 1.85 µM). Further, the MIC turned out to be 1.6 µg/mL (≈ 3.71 µM) in [7], 0.025 µg/mL (≈ 0.0579 µM) in [8], 0.4 µg/mL (≈ 0.927 µM) in [9] (setting [14]) and 0.05 µg/mL (≈ 0.116 µM) in assay [10].
On to `Cc1c(F)c(N2CC(C)NC(C)C2)cc2c1c(=O)c(C(=O)O)cn2-c1ccc(F)cc1F` (stereo not drawn) [Ex. 17b, 6-Fluoro-1-(2,4-difluorophenyl)-1,4-dihydro-5-methyl-7-(3,5-dimethyl-1-piperazinyl)-4-oxo-3-quinolinecarboxylic acid], for which the MIC in assay [1] (setting [12]) stood at 0.4 µg/mL (≈ 0.898 µM); in [2] it was 0.2 µg/mL (≈ 0.449 µM); in assay [4], 0.1 µg/mL (≈ 0.224 µM); in assay [5] it was 0.1 µg/mL (≈ 0.224 µM); in assay [6] (setting [13]), 0.8 µg/mL (≈ 1.8 µM); in [11], 1.6 µg/mL (≈ 3.59 µM). Also, the MIC came to 1.6 µg/mL (≈ 3.59 µM) in [7]; 0.05 µg/mL (≈ 0.112 µM) in [8]; 0.8 µg/mL (≈ 1.8 µM) in [9] (MGH2, read-out: Minimal Inhibitory Concentration MIC); 0.05 µg/mL (≈ 0.112 µM) in assay [10].

Source of the values: patent publication US5585491A, “Antibacterial agents” (Otsuka Pharmaceutical Co., Ltd., priority 1995, dated 1996).
